Test results: article PMC10141516 (Pharmaceutics, 2023)
Values belong to the molecule of their own block, whether it stands above or below them.

How the values were obtained:
[1] = oral; cited from earlier work
[2] = Equilibrium solubility test (HPLC); conditions: for solubility thermodynamic at 12 h / solubility thermodynamic at 24 h: thermodynamic from solid
Method: The column used was an Agilent C18 column (5.0 μm, 4.6 × 150 mm). The mobile phase and diluted solution of the content and dissolution studies analyses were prepared with 0.5% triethylamine buffer (v/v, pH 6.8 adjusted with 85% phosphoric acid) and acetonitrile at a ratio of 7:3 (v/v). The mobile phase was filtered through a 0.45-μm polypropylene membrane filter and degassed via sonication. The wavelength, flow rate, and injection volume were set to 205 nm, 1.5 mL/min, and 20 μL, respectively. In the case of the content and dissolution studies, the mobile phase was constantly flowed for 18 min via an isocratic elution method and analyzed.
The equilibrium solubility test was used to calculate the input amount through the apparent solubility test result, and an excess of the API was placed in each beaker and stirred at 400 rpm. At 0, 12, and 24 h immediately after the overdose, 2 mL samples were taken and filtered through a 0.45-μm regenerated cellulose syringe filter. The supernatant of the filtered solution was taken and diluted with a content analysis diluted solution. […] A calibration test was performed, and the sample was diluted with a diluted solution and prepared at a concentration of 0.05–1 mg/mL.

[3] = Compatibility study API-excipient / API-API (total impurities by HPLC); assay type: physicochemical
Method: The column used was the Gemini C18 column (5.0 μm, 250 mm). […] The mobile phase was filtered through a 0.4 μm polypropylene membrane filter and degassed via sonication. […] The column and sample thermostats were set to 35 °C and 5 °C, respectively. […] The compatibility study was performed using appearance and impurity tests to confirm the interaction between each API and the excipient. Each API was mixed with mannitol, microcrystalline cellulose, lactose, silicified microcrystalline cellulose, calcium hydrogen phosphate anhydrous, pregelatinized starch, sodium starch glycolate, crospovidone, sodium croscarmellose, magnesium stearate, colloidal silicon dioxide, sodium stearyl fumarate, hydroxypropyl cellulose, calcium hydroxide, citric acid, and OPADRY II pink in a 1:1 (w/w) ratio and put into each clear glass vial.

[4] = Apparent solubility test (USP <1236>); conditions: for solubility: 20 °C, thermodynamic from solid; for apparent solubility, USP <1236> term: other solvents (water, pH 1.2 to 12.0 buffers)
Method: Then, 200 μL of each solvent was added and stirred at 400 rpm. The temperature of the sample was maintained at 20 ± 2 °C. After shaking for 30 s every 5 min, 200 μL of each solvent was added until no particles of the API were visible. The apparent solubility of the two main components was estimated through the point at which all of the API dissolved and became clear.

[5] = buffer solution, pH 3, aqueous buffer
[6] = buffer solution, pH 4, aqueous buffer
[7] = buffer solution, pH 5, aqueous buffer
[8] = buffer solution, pH 6, aqueous buffer
[9] = buffer solution, pH 6.8, aqueous buffer
[10] = buffer solution, pH 7, aqueous buffer
[11] = buffer solution, pH 8, aqueous buffer
[12] = buffer solution, pH 9, aqueous buffer
[13] = buffer solution, pH 10, aqueous buffer
[14] = buffer solution, pH 11, aqueous buffer
[15] = pH 1.2 buffer solution, pH 1.2, aqueous buffer
[16] = pH 2.0 buffer solution, pH 2, aqueous buffer
[17] = pH 12.0 buffer solution, pH 12, aqueous buffer

amount dissolved in dissolution medium ([2]; 900 mL of dissolution medium): more than 0.33 mg per 1 mL | solubility thermodynamic at 12 h [2, 5]: 0.4 mg/mL | solubility thermodynamic at 24 h [2, 5]: 0.4 mg/mL | solubility thermodynamic at 12 h [2, 6]: 0.37 mg/mL | solubility thermodynamic at 24 h [2, 6]: 0.37 mg/mL | solubility thermodynamic at 12 h [2, 7]: 0.37 mg/mL | solubility thermodynamic at 24 h [2, 7]: 0.37 mg/mL | solubility thermodynamic at 12 h [2, 8]: 0.32 mg/mL | solubility thermodynamic at 24 h [2, 8]: 0.32 mg/mL | solubility thermodynamic at 12 h [2, 9]: 0.33 mg/mL | solubility thermodynamic at 24 h [2, 9]: 0.33 mg/mL | solubility thermodynamic at 12 h [2, 10]: 0.32 mg/mL | solubility thermodynamic at 24 h [2, 10]: 0.32 mg/mL | solubility thermodynamic at 12 h [2, 11]: 0.35 mg/mL | solubility thermodynamic at 24 h [2, 11]: 0.35 mg/mL | solubility thermodynamic at 12 h [2, 12]: 0.34 mg/mL | solubility thermodynamic at 24 h [2, 12]: 0.34 mg/mL | solubility thermodynamic at 12 h [2, 13]: 0.34 mg/mL | solubility thermodynamic at 24 h [2, 13]: 0.34 mg/mL | solubility thermodynamic at 12 h [2, 14]: 0.21 mg/mL | solubility thermodynamic at 12 h ([2]; deionized water, water): 0.29 mg/mL | solubility thermodynamic at 24 h ([2]; deionized water, water): 0.29 mg/mL | solubility thermodynamic at 12 h [2, 15]: 0.34 mg/mL | solubility thermodynamic at 24 h [2, 15]: 0.34 mg/mL | solubility thermodynamic at 12 h [2, 16]: 0.35 mg/mL | solubility thermodynamic at 24 h [2, 16]: 0.35 mg/mL | solubility thermodynamic at 24 h ([2]; pH 11.0 buffer solution, pH 11, aqueous buffer): 0.21 mg/mL | solubility thermodynamic at 12 h [2, 17]: 0.24 mg/mL | solubility thermodynamic at 24 h [2, 17]: 0.24 mg/mL | Total Impurities ([3]; 20 ± 2 °C/60 ± 5% RH, 2 Weeks): 0.10% | Total Impurities ([3]; 20 ± 2 °C/60 ± 5% RH, 4 Weeks): 0.09% | Total Impurities ([3]; 40 ± 2 °C/75 ± 5% RH, 2 Weeks): 0.08% | Total Impurities ([3]; 40 ± 2 °C/75 ± 5% RH, 4 Weeks): 0.12% | Total Impurities ([3]; Initial): 0.09% | solubility ([4]; acetonitrile, organic solvent or mixture): 33 to 100 mg/mL | solubility [4, 5]: 0.1 to 1 mg/mL | solubility [4, 6]: 0.1 to 1 mg/mL | solubility [4, 7]: 0.1 to 1 mg/mL | solubility [4, 8]: 0.1 to 1 mg/mL | solubility [4, 9]: 0.1 to 1 mg/mL | solubility [4, 10]: 0.1 to 1 mg/mL | solubility [4, 11]: 0.1 to 1 mg/mL | solubility [4, 12]: 0.1 to 1 mg/mL | solubility [4, 13]: 0.1 to 1 mg/mL | solubility [4, 14]: 0.1 to 1 mg/mL | solubility ([4]; deionized water, water): 0.1 to 1 mg/mL | solubility ([4]; ethanol, organic solvent or mixture): 33 to 100 mg/mL | solubility ([4]; methanol, organic solvent or mixture): 100 to 1000 mg/mL | apparent solubility, USP <1236> term [4]: very slightly soluble | solubility [4, 15]: 0.1 to 1 mg/mL | solubility [4, 16]: 0.1 to 1 mg/mL | solubility [4, 17]: 0.1 to 1 mg/mL
Compound: CCOc1ccc(Cc2cc([C@@H]3O[C@H](CO)[C@@H](O)[C@H](O)[C@H]3O)ccc2Cl)cc1 [Dapagliflozin, (1S)-1,5-Anhydro-1-C-[4-chloro-3-[(4-ethoxyphenyl)methyl]phenyl]-D-glucitol (S)-propane-1,2-diol (1:1) monohydrate]
Tmax [1]: 2 h

Compound: N[C@@H](CC(=O)N1CCn2c(nnc2C(F)(F)F)C1)Cc1cc(F)c(F)cc1F.O.O=P(O)(O)O [Sitagliptin, (R)-3-Amino-1-(3-(trifluoromethyl)-5,6-dihydro-[1,2,4]triazolo[4,3-a]pyrazin-7(8H)-yl)-4-(2,4,5-trifluorophenyl)butan-1-one phosphate monohydrate]
bioavailability [1]: approximately 87% | solubility thermodynamic at 12 h ([2]; pH 1.2, aqueous buffer): 1.94 mg/mL | solubility thermodynamic at 24 h ([2]; pH 1.2, aqueous buffer): 1.94 mg/mL | solubility thermodynamic at 12 h ([2]; pH 2, aqueous buffer): 3.11 mg/mL | solubility thermodynamic at 24 h ([2]; pH 2, aqueous buffer): 3.11 mg/mL | solubility thermodynamic at 12 h ([2]; pH 3, aqueous buffer): 1.7 mg/mL | solubility thermodynamic at 24 h ([2]; pH 3, aqueous buffer): 1.7 mg/mL | solubility thermodynamic at 12 h ([2]; pH 4, aqueous buffer): 1.61 mg/mL | solubility thermodynamic at 24 h ([2]; pH 4, aqueous buffer): 1.61 mg/mL | solubility thermodynamic at 12 h ([2]; pH 5, aqueous buffer): 1.51 mg/mL | solubility thermodynamic at 24 h ([2]; pH 5, aqueous buffer): 1.52 mg/mL | solubility thermodynamic at 12 h ([2]; pH 6, aqueous buffer): 1.16 mg/mL | solubility thermodynamic at 24 h ([2]; pH 6, aqueous buffer): 1.16 mg/mL | solubility thermodynamic at 12 h ([2]; pH 6.8, aqueous buffer): 2.67 mg/mL | solubility thermodynamic at 12 h ([2]; pH 7, aqueous buffer): 2.76 mg/mL | solubility thermodynamic at 24 h ([2]; pH 7, aqueous buffer): 2.76 mg/mL | solubility thermodynamic at 12 h ([2]; pH 8, aqueous buffer): 1.42 mg/mL | solubility thermodynamic at 24 h ([2]; pH 8, aqueous buffer): 1.43 mg/mL | solubility thermodynamic at 12 h ([2]; pH 9, aqueous buffer): 1.5 mg/mL | solubility thermodynamic at 24 h ([2]; pH 9, aqueous buffer): 1.5 mg/mL | solubility thermodynamic at 12 h ([2]; pH 10, aqueous buffer): 0.96 mg/mL | solubility thermodynamic at 24 h ([2]; pH 10, aqueous buffer): 0.97 mg/mL | solubility thermodynamic at 12 h ([2]; pH 11, aqueous buffer): 1.44 mg/mL | solubility thermodynamic at 24 h ([2]; pH 11, aqueous buffer): 1.44 mg/mL | solubility thermodynamic at 12 h ([2]; pH 12, aqueous buffer): 1.61 mg/mL | solubility thermodynamic at 24 h ([2]; pH 12, aqueous buffer): 1.6 mg/mL | solubility thermodynamic at 12 h ([2]; water): 1.42 mg/mL | solubility thermodynamic at 24 h ([2]; water): 1.42 mg/mL | Total Impurities ([3]; 20 ± 2 °C/60 ± 5% RH, 2 Weeks): 0.00% | Total Impurities ([3]; 20 ± 2 °C/60 ± 5% RH, 4 Weeks): 0.00% | Total Impurities ([3]; 40 ± 2 °C/75 ± 5% RH, 2 Weeks): 0.00% | Total Impurities ([3]; 40 ± 2 °C/75 ± 5% RH, 4 Weeks): 0.00% | Total Impurities ([3]; Initial): 0.00% | solubility ([4]; organic solvent or mixture): < 0.1 mg/mL | solubility ([4]; pH 1.2, aqueous buffer): 1 to 10 mg/mL | solubility ([4]; pH 2, aqueous buffer): 1 to 10 mg/mL | solubility ([4]; pH 3, aqueous buffer): 1 to 10 mg/mL | solubility ([4]; pH 4, aqueous buffer): 1 to 10 mg/mL | solubility ([4]; pH 5, aqueous buffer): 1 to 10 mg/mL | solubility ([4]; pH 6, aqueous buffer): 1 to 10 mg/mL | solubility ([4]; pH 6.8, aqueous buffer): 1 to 10 mg/mL | solubility ([4]; pH 7, aqueous buffer): 1 to 10 mg/mL | solubility ([4]; pH 8, aqueous buffer): 1 to 10 mg/mL | solubility ([4]; pH 9, aqueous buffer): 1 to 10 mg/mL | solubility ([4]; pH 10, aqueous buffer): 0.1 to 1 mg/mL | solubility ([4]; pH 11, aqueous buffer): 1 to 10 mg/mL | solubility ([4]; pH 12, aqueous buffer): 1 to 10 mg/mL | solubility ([4]; water): 1 to 10 mg/mL | apparent solubility, USP <1236> term [4]: soluble
